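All cell lines were grown in 96-well plates and treated with compound for 48 hours. GI50 is the concentration that inhibits growth by half. TGI marks complete inhibition of growth.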
Key:
Experiment in all cases: inhibition of tumour cell growth, NCI panel, 48 h
786-0 renal = tested on: 786-0 renal
A498 renal = tested on: A498 renal
A549 NSCLC = tested on: A549 NSCLC
ACHN renal = tested on: ACHN renal
BT-549 breast = tested on: BT-549 breast
CAKI-1 renal = tested on: CAKI-1 renal
CCRF-CEM leukemia = tested on: CCRF-CEM leukemia
COLO 205 colon = tested on: COLO 205 colon
DU-145 prostate = tested on: DU-145 prostate
EKVX NSCLC = tested on: EKVX NSCLC
HCC-2998 colon = tested on: HCC-2998 colon
HCT-116 colon = tested on: HCT-116 colon
HCT-15 colon = tested on: HCT-15 colon
HL-60(TB) leukemia = tested on: HL-60(TB) leukemia
HOP-62 NSCLC = tested on: HOP-62 NSCLC
HOP-92 NSCLC = tested on: HOP-92 NSCLC
HS 578T breast = tested on: HS 578T breast
HT29 colon = tested on: HT29 colon
IGROV1 ovarian = tested on: IGROV1 ovarian
K-562 leukemia = tested on: K-562 leukemia
KM12 colon = tested on: KM12 colon
LOX IMVI melanoma = tested on: LOX IMVI melanoma
M14 melanoma = tested on: M14 melanoma
MALME-3M melanoma = tested on: MALME-3M melanoma
MCF7 breast = tested on: MCF7 breast
MDA-MB-231 breast = tested on: MDA-MB-231 breast
MDA-MB-435 = tested on: MDA-MB-435
MOLT-4 leukemia = tested on: MOLT-4 leukemia
NCI-H226 lung = tested on: NCI-H226 lung

## COc1ccc(-c2nn(C(=O)NCCN(C)C)cc2-c2ccncc2)cc1Cl
786-0 renal
  GI50: 7.62 µM
  TGI: 51.5 µM
A498 renal
  GI50: 2.12 µM
  TGI: 5.95 µM
A549 NSCLC
  GI50: 5.44 µM
  TGI: > 100 µM
ACHN renal
  GI50: 3.76 µM
  TGI: > 100 µM
BT-549 breast
  GI50: 4.51 µM
  TGI: > 100 µM
CAKI-1 renal
  GI50: 3.24 µM
  TGI: 24.4 µM
CCRF-CEM leukemia
  GI50: 7.47 µM
  TGI: > 100 µM
COLO 205 colon
  GI50: 3.5 µM
  TGI: 13.9 µM
DU-145 prostate
  GI50: 6.94 µM
  TGI: 65.6 µM
EKVX NSCLC
  GI50: 2.23 µM
  TGI: > 100 µM
HCC-2998 colon
  GI50: 10.1 µM
  TGI: 46.4 µM
HCT-116 colon
  GI50: 4.6 µM
  TGI: > 100 µM
HCT-15 colon
  GI50: 3.93 µM
  TGI: > 100 µM
HL-60(TB) leukemia
  GI50: 5.3 µM
  TGI: 57.9 µM
HOP-62 NSCLC
  GI50: 2.99 µM
  TGI: 20.9 µM
HOP-92 NSCLC
  GI50: 1.16 µM
  TGI: 56.3 µM
HS 578T breast
  GI50: 2.79 µM
  TGI: 9.21 µM
HT29 colon
  GI50: 2.17 µM
  TGI: 12.6 µM
IGROV1 ovarian
  GI50: 8.74 µM
  TGI: > 100 µM
K-562 leukemia
  GI50: 5.66 µM
  TGI: > 100 µM
KM12 colon
  GI50: 4.01 µM
  TGI: 43.5 µM
LOX IMVI melanoma
  GI50: 4.23 µM
  TGI: 48.9 µM
M14 melanoma
  GI50: 5.52 µM
  TGI: 24.4 µM
MALME-3M melanoma
  GI50: 11.8 µM
  TGI: > 100 µM
MCF7 breast
  GI50: 3.57 µM
  TGI: > 100 µM
MDA-MB-231 breast
  GI50: 6.34 µM
  TGI: > 100 µM
MDA-MB-435
  GI50: 1.15 µM
  TGI: 4.34 µM
MOLT-4 leukemia
  GI50: 4.67 µM
  TGI: > 100 µM
NCI-H226 lung
  GI50: 4.11 µM
  TGI: 63.7 µM

— PubChem BioAssay (NCI)
